# From patent US8716355B2, “Hydroxylated tolans and related compounds in the treatment of a cancer” (Kent State University, priority 2007, dated 2014)
# Read-outs that look alike come from different tables or passages of the source.
# Key:
# [1] = system: colon cancer; test: Colon cancer patients (Example VIII E); type: in vivo, human
# Experimental: Eight patients suffering from advanced colon cancer are treated daily for three weeks with an intravenous infusion of 2 g of the compounds KST-201, KST-213, KST-301 or KST-401 dissolved in saline. Two patients are assigned to each compound. The compounds are dissolved in sterile saline. […] Progression of the tumor is also arrested over the treatment period.
# Another eight patients with terminal colon cancer are treated by daily bolus injections (intravenous or intramuscular) of 2 g of KST-201, KST-213, KST-301 or KST-401.
# [2] = system: breast cancer; test: Breast cancer prevention, skin patch (Example VIII C); type: in vivo, human; details: transdermal patch 10 mg to 100 mg daily, one-year study
# Experimental: This study investigates whether KST-201, KST-213, KST-301 and KST-401 administered transdermally each day through a skin patch aid in preventing breast cancer or metastatic cancer following cancer therapy. Patches are prepared with a lipophilic carrier which is readily absorbed through the skin (glycerol cold cream containing glycerin and peanut oil). The HT compound is mixed with the lipophilic cream such that each patch comprises 10 mg to 100 mg of active compound. The patch is applied to the skin each day, and rapid absorption occurs. After two hours, the patch is removed.
# [3] = system: HSV-1; test: HSV-1 replication in infected Vero cells (plaque assay); type: cell-based, Herpes Simplex Virus-Type 1
# Experimental: For this purpose HSV-1 replication at 24, 48 and 72 h was examined in the presence or absence of varying concentrations of the polyphenol.
# The SI is the ratio of the CD50 divided by a selected inhibitory concentration (IC %).
# Viral inhibition by Tolan-3 appeared to occur after viral entry into cells. […] Subsequently, the compound was removed and replaced with culture medium alone, and the incubated continued for 48 or 72 more hrs. In a second experiment, HSV-1 infected Vero cells were incubated with 350 μM Tolan-3 for 48 h. Thereafter, the Tolan-3 was removed and replaced by medium and the incubation continued for an additional 24 h. Viral titers were calculated by a standard plaque assay.
# [4] = system: prostate cancer; test: Prostate cancer patients (Example VIII A); type: in vivo, human; details: daily 10 μg to 5 mg/Kg; no significant differences between the four groups
# Experimental: A group of 40 men aged 55-75 suffering from prostate cancer receive a daily dosage of between 10 μg and 5 mg/Kg body weight of KST-201, KST-213, KST-301 or KST-401 (10 patients per compound). Examination of the patients by clinical, radiographic and histopathological tests show significant shrinkage in tumors, and signs of cell death in 38% of the patients; there are no significant differences between the four treatment groups.
# [5] = system: HSV-1
# Description: FIG. 2. […] A 10% w/v solution of KST-301 in DMSO was applied topically to the epidermal infection site 3×/day for 5 days. Controls animals received the same volume of the DMSO vehicle at the same intervals. Lesions were scored as 0=no visible lesions, +1=papules around the infection site, +2=papules are ulcerated around the infection site with eschar formation, +3=ulcerated zosteriform spread along peripheral nerves to the flank of the animal, +4=ulcerated lesions open on the flank, and +5=death of the animal.
# The lesions were scored as in the description for FIG. 2.
# [6] = system: bladder cancer; test: Bladder cancer patients (Example VIII B); type: in vivo, human; details: intravenous 10 μg to 5 mg/kg over three months
# Experimental: A group of 20 men and 20 women aged 50-75 with bladder cancer are treated by intravenous injection of between 10 μg and 5 mg/kg of KST-201, KST-213, KST-301 or KST-401. Each compound is given to a group of 5 men and 5 women) over a period of three months. Clinical, radiographic and histopathological tests show significant remission in 35% of patients, accompanied by signs of cell death in 45%. There are no significant differences between the results with the four compounds.
# [7] = system: Vero cells; test: Cytotoxicity (CD50) on Vero cells; type: cell-based; details: 48 hours of exposure
# Description: See Example II for tumor cell cytotoxicity of these compounds. […] NAB group 32 contains two compounds, Tolan-2 (also designated herein as KST-201) and Stil-2. Based on the NAB, they were classified as topological isomers. However, chemically they differ because Stil-2, a […], contained a double bonded linker, while Tolan-2 contained a triple bonded linker. The cytotoxicity of the two molecules on Vero cells differed markedly: Tolan-2 was less toxic than Stil-2.
# [8] = system: Mushroom tyrosinase; test: Inhibition of mushroom tyrosinase activity; type: biochemical; details: concentration not given
# Experimental: All chemical used for reagents were purchased from Sigma Chemical Company. KST201 at each tested concentration (1000, 250 and 100 μM) was dissolved in 10% ethanol from a master mixture of the drug prepared at 0.1M in 100% ethanol.
# Mushroom tyrosinase (Sigma) was diluted in 50 mM phosphate buffer, pH 6.5 to yield a concentration of 16 U/μl. […] A master mix containing 0.5 mM L-DOPA [3,4-dihydroxy-1-phenylalanine], 10 mM Sodium L-tyrosine in 50 mM phosphate buffer, pH 6.5 was prepared. The KST-201 dilutions were preincubated with the enzyme for 20 minutes. The samples were pipetted into 24 well plates and the master mixture added quickly. The reaction was read using a kinetic format in which wells were read every 30 seconds over a course of 10 minutes at a wavelength of 475 nm using a Synergy HT Plate reader. A kinetic curve was generated for each sample compared to a total reaction with mushroom tyrosinase without a drug (total).
# [9] = system: ovarian cancer; test: Ovarian cancer patients (Example VIII D); type: in vivo, human; details: daily gelatin capsule 200 mg
# Experimental: A study is carried out in a group of 40 women with ovarian cancer of various grades to determine the effect of treatment with compounds of KST-201, KST-213, KST-301 and KST-401. The administration protocol involves daily administration of a gelatin capsule containing 200 mg of active compound.
# [10] = system: HSV-1; test: Direct inactivation, attachment and penetration of HSV-1; type: cell-based, Herpes Simplex Virus-Type 1
# Experimental: To determine whether Tolan-3 directly inactivated the virus, Tolan-3 was incubated with HSV-1 at room temperature for 1, 30 or 60 minutes while controls were also incubated with HSV-1 at room temperature without Tolan-3. The treated or control virus was plated onto Vero cells.
# [11] = system: terminal cancer; details: cited from earlier work
# [12] = system: T24; test: MTT cytotoxicity, T24 bladder cancer cells; type: cell-based, human; details: Homo sapiens, VC:KST-201 200:1, read-out: CD50 (μM) of each Compound tested in combination, T24
# Experimental: (§1) As a first step, the antitumor activity of the tolans was assessed against a panel of three cancer cells lines that produce solid tumors upon implantation into animals. DU145 is an androgen-independent prostate cancer cells. T24 is a transitional cell bladder carcinoma cell. MDAH2274 (“MDAH) is an endometroid ovarian adenocarcinoma cell. To assess the selectivity of this antitumor activity, the toxicity of the tolans to normal human fibroblasts (MHRF) was examined.
# Cell killing was evaluated using the colorimetric MTT assay. The assay measures the formation of a colored product from a chromogenic precursor, the tetrazole 3-[4,5-dimethylthiazol-2-yl]-2,5 diphenyltetrazolium bromide (MTT). The yellow MTT is reduced to purple formazan in the mitochondria of living cells. A solubilization solution (typically dimethyl sulfoxide or sodium dodecyl sulfate in dilute hydrochloric acid) is added to dissolve the insoluble purple formazan product into a colored solution. The absorbance of this colored solution is quantified by measuring at a certain wavelength (usually between 500 and 600 nm) by a spectrophotometer. […] This MTT assay is used widely to assess the cytotoxicity and selectivity of compounds such as anti-cancer drugs. The assay is suitable for rapid toxicity characterization of a test agent such as a drug formulation. […] A lower CD50 indicates a greater cytotoxic activity (as a lower amount of the agent is needed to achieve a fixed level of cytotoxicity). Two agents can be compared by examining the fold-increase or decrease in their CD50 values. […]
# [13] = mice; 6.5 g/Kg daily for 6 weeks and 2 g/Kg for 2 years; cited from earlier work
# [14] = system: MDAH2274; test: MTT cytotoxicity, MDAH2274 ovarian cancer cells; type: cell-based, human; details: Homo sapiens
# Experimental: as §1
# Cell killing was evaluated using the colorimetric MTT assay. The assay measures the formation of a colored product from a chromogenic precursor, the tetrazole 3-[4,5-dimethylthiazol-2-yl]-2,5 diphenyltetrazolium bromide (MTT). The yellow MTT is reduced to purple formazan in the mitochondria of living cells. A solubilization solution (typically dimethyl sulfoxide or sodium dodecyl sulfate in dilute hydrochloric acid) is added to dissolve the insoluble purple formazan product into a colored solution. The absorbance of this colored solution is quantified by measuring at a certain wavelength (usually between 500 and 600 nm) by a spectrophotometer. […] This MTT assay is used widely to assess the cytotoxicity and selectivity of compounds such as anti-cancer drugs. The assay is suitable for rapid toxicity characterization of a test agent such as a drug formulation. […] A lower CD50 indicates a greater cytotoxic activity (as a lower amount of the agent is needed to achieve a fixed level of cytotoxicity). Two agents can be compared by examining the fold-increase or decrease in their CD50 values.
# [15] = system: advanced cancer; details: 10 g oral VC, randomized placebo-controlled trials; cited from earlier work
# [16] = intravenous infusion 2 g daily for three weeks
structure (smiles),measurement,setting,value
"Oc1ccc(C#Cc2cc(O)cc(O)c2)cc1 [KST-301, 3,4′,5-trihydroxytolan]",Dissemination of the tumors,[1]; daily bolus injections (intravenous or intramuscular) of 2 g,dissemination of the tumors is diminished
same,Cancer marker carcinoembryonic antigen (CEA),[1]; [16],significant reduction
same,Progression of the tumor,[1]; [16],arrested
same,Breast cancer or metastatic cancer in high-risk group,[2],does not show any evidence of breast cancer or other metastatic cancer
same,Reversibility of HSV-1 inhibition after removal of compound,"[3]; 350 μM, removed as late as 48 hours post infection",HSV-1 replication recovered
same,"SI50 (selectivity index, CD50 divided by IC50)",[3]; 48 h post-infection,> 63
same,IC50,"[3]; Human alphaherpesvirus 1, Vero, read-out: IC50, concentration at which 50% of HSV-1 replication was inhibited, viral assays at lower compound concentrations",6.37 µM
same,Effect on HSV-1 viral replication in Vero cells (in words),"[3]; at CD50, 75% and 50% of CD50, 24, 48, 72 h",significant anti-HSV activity
same,"Patients with significant shrinkage in tumors, and signs of cell death",[4],38%
same,Number and severity of HSV lesions,"[5]; 5% w/v solution, topical, hairless mice",significantly reduced the number and severity of HSV lesions
same,Severity of HSV-1 lesions,"[5]; 10% w/v solution in DMSO, topical 3×/day for 5 days, hairless mice",significantly reduced
same,Treated animals in which lesion formation was prevented,[5]; topical solution in DMSO,67%
same,Treated animals showing evidence of HSV infection,"[5]; topical solution in DMSO, controls 83-100%",33%
same,Maximum (average) lesion score,"[5]; topical solution in DMSO, scale 0 to +5, controls 3.8-4 by days 8 and 9",0.8-1.2
same,"Dermal toxicity (erythema, scaling, crusting, lichenification, excoriation)","[5]; topical, hairless mice",no apparent dermal toxicity
same,Patients with signs of cell death,[6],45%
same,Patients with significant remission,[6]; no differences between compounds,35%
same,CD50,[7],350 µM
same,Log CD50,[7],2.54
same,% inhibition of mushroom tyrosinase activity,[8],40.1±9.9%
same,"Rate of production of ovarian cancer markers (Muc-1, Sp17)",[9],significant decrease
same,Tumor growth during study period,[9],Tumors regress or show no further growth
same,Inhibition of HSV-1 attachment or penetration,[10],did not inhibit HSV-1 attachment or penetration
same,Direct inactivation of HSV-1,"[10]; incubated with HSV-1 at room temperature 1, 30 or 60 minutes",did not directly inactivate HSV-1
"O=C1O[C@H]([C@@H](O)CO)C([O-])=C1O.[Na+] [VC, sodium ascorbate, reference compound]",Mean survival time (MST),"[11]; 100 terminal cancer patients, 10 g/day i.v. 10 days then oral, controls 50 days",> 210 days
same,"MST, times greater than that of the controls",[11]; 100 terminal cancer patients,more than 4.2 times
same,MST of subjects with ovarian cancer,"[11]; six ovarian cancer subjects, controls 71 days",148 days
same,IC50,"[12]; T-24, 24 h, 1 day",638 µM
same,IC50,"[12]; T-24, 48 h, 2 days",634 µM
same,"Mortality, weight changes, blood chemistry, hematology, histology, other pathologies",[13],no abnormal rates of mortality
same,IC50,"[14]; 24 h, MTT, 1 day incubation, read-out: CD50 against MDAH, compound tested individually",937 µM
same,IC50,"[14]; 24 h, VC:KST-201 400:1, 1 day, read-out: CD50 (μM) of each Compound tested in combination, MDAH 2274",466 µM
same,IC50,"[14]; 48 h, MTT, 2 days incubation, read-out: CD50 against MDAH, compound tested individually",900 ± 46.7 µM
same,IC50,"[14]; 48 h, VC:KST-201 400:1, 2 days, read-out: CD50 (μM) of each Compound tested in combination, MDAH 2274",389 ± 9.6 µM
same,IC50,"[14]; 72 h, MTT, 3 days incubation, read-out: CD50 against MDAH, compound tested individually",879 µM
same,IC50,"[14]; 72 h, VC:KST-201 400:1, 3 days, read-out: CD50 (μM) of each Compound tested in combination, MDAH 2274",393 µM
same,Benefit of oral VC treatment,[15],no benefits of oral VC treatment
